Measured values as given in BigSolDB 2.1.

O=C(O)c1ccc(C(=O)O)o1
solubility (mole fraction)
Settings | in 1,2-dimethoxyethane | in 1,4-dioxane | in THF | in diglyme
293.15 K | – | – | 0.00772 | –
298.15 K | – | – | 0.00826 | –
303.15 K | 0.00344 | 0.00421 | 0.00884 | 0.00653
308.15 K | 0.00372 | 0.00458 | 0.00939 | 0.00704
313.15 K | 0.0039 | 0.00481 | 0.00998 | 0.00735
318.15 K | 0.0041 | 0.00521 | 0.0108 | 0.00767
323.15 K | 0.00432 | 0.00573 | 0.0116 | 0.00801
328.15 K | 0.00458 | 0.00631 | 0.0122 | 0.00842
333.15 K | 0.00487 | 0.00739 | 0.0128 | 0.00887
338.15 K | 0.00528 | 0.00827 | – | 0.00937
343.15 K | 0.00558 | 0.00886 | – | 0.00965
348.15 K | – | – | – | 0.0103
353.15 K | – | – | – | 0.0105
